# In patent US20160120858A1 (ACADEMIA SINICA, priority 2014, published 2016):
# Tests used:
# [1] = test system: hippocampal SC-CA1 synapses; test: Tetanus-induced LTP (fEPSP), hippocampal slices; type: cell-based, mouse; conditions: 4 uM
# Protocol: For electrophysiological experiments, sagittal hippocampal slices (400 uM thick for extracellular, 300 uM thick for intracellular recordings) of Shank2^-/- mice (or ZnT3^-/- mice) and their wild-type littermates were prepared using a vibratome (Leica VT1200) in ice-cold dissection buffer containing (in mM) 212 sucrose, 25 NaHCO3, 5 KCl, 1.25 NaH2PO4, 0.5 CaCl2, 3.5 MgSO4, 10 D-glucose, 1.25 L-ascorbic acid, and 2 Na-pyruvate bubbled with 95% 02/5% CO2. CA3 was removed to prevent epileptiform activity. Slices were restored for 1 hour in 32° C. in a normal artificial CSF (ACSF) (In units of mM: 124 NaCl, 2.5 kCl, 1 NaH2PO4, 25 NaHCO3, 10 glucose, 2 CaC12, 2 Mg504 oxidized by 95% 02/5% CO2) For the recording, a single slice was moved to and maintained in submerged-type chamber at 28° C., continuously perfused with ACSF (2 mL/minute) saturated with 95% 02/5% CO2. Stimulation and recording pipettes were pulled from borosilicate glass capillaries (Harvard Apparatus) using a micropipette electrode puller ([…]). For extracellular recordings, mouse hippocampal slices at the age of postnatal day 21 to 35 were used. Field excitatory postsynaptic potentials (fEPSPs) were recorded in the stratum radiatum of the hippocampal CA1 region using pipettes filled with ACSF (1 MΩ). fEPSP was amplified (Multiclamp 700B, Molecular Devices), and digitized (Digidata 1440A, Molecular Devices) for measurements. The Schaffer collateral pathway was stimulated every 20 seconds with pipettes filled with ACSF (0.3 to 0.5 MΩ). The stimulation intensity was adjusted to yield a half-maximal response, and three successive responses were averaged and expressed relative to the normalized baseline. To induce LTP, high frequency stimulation (100 Hz, 1 s) was applied after a stable baseline was acquired.
# Shank2^−/− mice = test: Repetitive behaviors (jumping, grooming) in home cage; type: in vivo, mouse; conditions: 30 mg/kg i.p.; for Grooming / Jumping: Shank2^−/− mice, 2 hours prior to testing; for Repetitive behaviors: wild-type mice
# Protocol: The injection was performed 2 hours before (Shank2^−/− mice and wild-type littermates), or 3 hours before (Tbr1^+/− mice and wild-type littermates) behavioral assays at the discretion of the facility. A within-subjects design was designed with a one week washout period (FIG. 8), and divided animals into two groups, vehicle-first and clioquinol-first group, to rule out carryover effects. Each mouse received a single acute dose of vehicle or clioquinol, and underwent a single behavioral task, one task per week. Testing was conducted in dedicated behavioral test rooms during the light phase (three-chamber test) and the dark phase (repetitive behaviors and open field test). Shank2^−/− mice and their wild-type littermates in their home cages without bedding were used to measure times spent in repetitive behaviors including jumping and grooming. In this case, jumping is defined as mice planting rear feet and standing up by lifting front feet along the cage, in other words, the cage corner or a side wall, and jumping up such that both of the rear feed are separated from the bottom surface. Meanwhile, grooming is defined as stroking or scratching the face or the body with two front feet or licking a part of the body. The experiments and analysis were performed independently in a blind manner.
structure (smiles),measurement,setting,value
"Oc1c(I)cc(Cl)c2cccnc12 [clioquinol, 5-Chloro-7-Iodo-8-Hydroxyquinoline]",Tetanus (100 Hz)-induced LTP,[1]; Shank2^−/− SC-CA1 synapses,reversed the reduced tetanus-induced long-term potentiation
same,Tetanus (100 Hz)-induced LTP,"[1]; Shank2^−/− SC-CA1 synapses, listed as CQ",restored LTP
same,Tetanus (100 Hz)-induced LTP,[1]; wild-type synapses,had no effect on LTP
same,Grooming,Shank2^−/− mice,not influenced
same,Jumping,Shank2^−/− mice,not influenced
same,Grooming,Shank2^−/− mice; listed as CQ,has no effect on grooming
same,Jumping,Shank2^−/− mice; listed as CQ,fails to improve jumping
same,Grooming,Shank2^−/− mice; listed as Clioquinol,had no effect
same,Jumping,Shank2^−/− mice; listed as Clioquinol,had no effect
same,Repetitive behaviors,Shank2^−/− mice,did not affect repetitive behaviors
same,Repetitive behaviors,Shank2^−/− mice; listed as Clioquinol,had no effect
